Laboratory results: patent US9452225B2, “GLP-1 prodrugs” (Novo Nordisk A/S, priority 2012, dated 2016)
Numbered stars: 1 amine (or outer) side, 2 acyl side, 3 side chain; on linkers, the order of the positions; unused ones are H or OH. Square brackets hold non-standard residues; d marks the D form. Side chains are listed from the residue outwards. Peptide text beside a SMILES is read from it. * marks the point of attachment. Decanoyl(10-(4-HOOC-PhO)) = O=C(O)c1ccc(OCCCCCCCCCC(=O)*)cc1; Lac(3-(imidazol-4-yl)) = O=C(O)[C@@H](O)Cc1c[nH]cn1; γGlu = O=C(O)[C@H](CCC(=O)[*:2])N[*:1]; AEEA = NCCOCCOCC(=O)O; Glycolyl = O=C(CO)*

Experiment: Prodrug half-life in vitro, buffer method
Assay type: physicochemical
Settings: 25 mM phosphate buffer pH 7.4, 37° C., 1.0 mg/mL; UPLC_A, or UPLC_B for compounds marked *; read-out: T½ in buffer (converted)
Protocol: The purpose of this example is to test the in vitro half-lives (T½) of the GLP-1 prodrugs of the invention, in comparison to conceptually different prodrugs. In what follows two in vitro methods are described, viz. a method conducted in buffer, and a method conducted in plasma.
Buffer: 25 mM Phosphate (Ionic strength: 154 mM, pH 7.4 at 37° C.)
NaH2PO4.2H2O (1.95 g, 12.5 mmol) and NaCl (2.61 g, 44.7 mmol) were dissolved in millipore water (approximately 450 mL) and adjusted to pH=7.44 at approximately 20° C. with concentrated NaOH and 1 M NaOH. Water was added to 500.00 mL.
The compound to be tested was dissolved in buffer to a concentration of 1.0 mg/mL and incubated at 37° C. Samples were taken at adequate intervals and the % parent drug compared to prodrug formed as function of time was evaluated by the UPLC method as referred to in Table 1 by comparing the areas under the curves for the two corresponding peaks. These UPLC methods are described in the general experimental section above (UPLC_A, and UPLC_B).
The half life of the prodrug (T½) was calculated from the slope of a linear fit to the curve of ln(% prodrug (Y)) as a function of time (t), as follows: Y=÷αt+k Math. 1 T½=ln(2)/α Math. 2 Plasma Method Buffer: 200 mM Phosphate, pH 7.4 at 37° C.
The resulting half-lives are set out in Table 1 below. For comparison, the T½ in buffer of native GLP-1(7-37) (His7 variant of SEQ ID NO: 1) was 13 minutes (0.2 hours).

Structure (SMILES) | half-life at 1 mg/mL
CC[C@H](C)[C@H](NC(=O)[C@H](Cc1ccccc1)NC(=O)[C@H](CCC(=O)O)NC(=O)[C@H](CCCNC(=N)N)NC(=O)[C@@H](NC(=O)[C@H](C)NC(=O)[C@H](CCC(N)=O)NC(=O)[C@H](CCC(=O)O)NC(=O)[C@H](CCC(=O)O)NC(=O)[C@H](CC(C)C)NC(=O)[C@H](Cc1ccc(O)cc1)NC(=O)[C@H](CCCCNC(=O)COCCOCCNC(=O)COCCOCCNC(=O)CC[C@H](NC(=O)CCCCCCCCCOc1ccc(C(=O)O)cc1)C(=O)O)NC(=O)[C@H](CO)NC(=O)[C@@H](NC(=O)[C@H](CC(=O)O)NC(=O)[C@H](CO)NC(=O)[C@@H](NC(=O)[C@H](Cc1ccccc1)NC(=O)[C@@H](NC(=O)CNC(=O)[C@H](CCC(=O)O)NC(=O)[C@H](C)NC(=O)[C@H](Cc1c[nH]cn1)OC(=O)[C@@H](NC(=O)CN)C(C)C)[C@@H](C)O)[C@@H](C)O)C(C)C)C(C)C)C(=O)N[C@@H](C)C(=O)N[C@@H](CCCCNC(=O)COCCOCCNC(=O)COCCOCCNC(=O)CC[C@H](NC(=O)CCCCCCCCCOc1ccc(C(=O)O)cc1)C(=O)O)C(=O)N[C@@H](CC(C)C)C(=O)N[C@H](C(=O)N[C@@H](CCCNC(=N)N)C(=O)NCC(=O)N[C@@H](CCCNC(=N)N)C(=O)NCC(=O)O)C(C)C [Example 1a] (H-GV[Lac(3-(imidazol-4-yl))]AEGTFTSDVSK([AEEA-AEEA-γGlu-Decanoyl(10-(4-HOOC-PhO))])YLEEQAVREFIAK([AEEA-AEEA-γGlu-Decanoyl(10-(4-HOOC-PhO))])LVRGRG-OH) | 1.5 h
CC[C@H](C)[C@H](NC(=O)[C@H](Cc1ccccc1)NC(=O)[C@H](CCC(=O)O)NC(=O)[C@H](CCCNC(=N)N)NC(=O)[C@@H](NC(=O)[C@H](C)NC(=O)[C@H](CCC(N)=O)NC(=O)[C@H](CCC(=O)O)NC(=O)[C@H](CCC(=O)O)NC(=O)[C@H](CC(C)C)NC(=O)[C@H](Cc1ccc(O)cc1)NC(=O)[C@H](CCCCNC(=O)COCCOCCNC(=O)COCCOCCNC(=O)CC[C@H](NC(=O)CCCCCCCCCOc1ccc(C(=O)O)cc1)C(=O)O)NC(=O)[C@H](CO)NC(=O)[C@@H](NC(=O)[C@H](CC(=O)O)NC(=O)[C@H](CO)NC(=O)[C@@H](NC(=O)[C@H](Cc1ccccc1)NC(=O)[C@@H](NC(=O)CNC(=O)[C@H](CCC(=O)O)NC(=O)[C@H](C)NC(=O)[C@H](Cc1c[nH]cn1)OC(=O)[C@@H](NC(=O)CO)C(C)C)[C@@H](C)O)[C@@H](C)O)C(C)C)C(C)C)C(=O)N[C@@H](C)C(=O)N[C@@H](CCCCNC(=O)COCCOCCNC(=O)COCCOCCNC(=O)CC[C@H](NC(=O)CCCCCCCCCOc1ccc(C(=O)O)cc1)C(=O)O)C(=O)N[C@@H](CC(C)C)C(=O)N[C@H](C(=O)N[C@@H](CCCNC(=N)N)C(=O)NCC(=O)N[C@@H](CCCNC(=N)N)C(=O)NCC(=O)O)C(C)C [Example 1b] (Glycolyl-V[Lac(3-(imidazol-4-yl))]AEGTFTSDVSK([AEEA-AEEA-γGlu-Decanoyl(10-(4-HOOC-PhO))])YLEEQAVREFIAK([AEEA-AEEA-γGlu-Decanoyl(10-(4-HOOC-PhO))])LVRGRG-OH) | 0.65 h
